SMILES strings stand for the structures.

Sequence of ALK5 (P36897 34-503): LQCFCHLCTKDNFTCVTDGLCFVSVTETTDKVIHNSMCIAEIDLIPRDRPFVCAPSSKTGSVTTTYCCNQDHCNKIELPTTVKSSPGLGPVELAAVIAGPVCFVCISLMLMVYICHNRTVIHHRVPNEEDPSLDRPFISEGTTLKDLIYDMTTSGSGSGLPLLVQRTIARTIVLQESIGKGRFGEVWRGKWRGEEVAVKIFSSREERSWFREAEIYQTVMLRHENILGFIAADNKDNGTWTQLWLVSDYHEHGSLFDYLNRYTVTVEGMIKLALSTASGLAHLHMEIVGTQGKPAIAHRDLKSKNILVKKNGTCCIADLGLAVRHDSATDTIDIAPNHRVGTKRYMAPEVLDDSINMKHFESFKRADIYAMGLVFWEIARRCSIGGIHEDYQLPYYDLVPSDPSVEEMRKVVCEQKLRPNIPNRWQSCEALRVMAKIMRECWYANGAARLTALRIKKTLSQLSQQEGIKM

The target of the assay is ALK5 (Homo sapiens (Human), UniProt P36897). In words: Evaluation experiment of ALK5 enzyme activity inhibition IC50 (ADP-Glo kinase assay). It counts as biochemical. The note with it: 25 nM ALK5, 0.1 mg/mL peptide TGFbR1, 7 μM ATP, 30° C. 1 hour, ADP-Glo luminescence. How it is done:
1×kinase buffer preparation: 40 mM Tris (pH 7.5), 20 mM MgCl2, 0.10% BSA, 1 mM DTT.
Compound preparation: The final detection concentration of the compound was 10 μM, which was configurated to a 100-fold concentration, i.e., 1 mM. In the second well of the 384-well plate, 100 μL of 100-fold compound was added, and 60 μL of 100% DMSO was added to other wells. 30 μL of compound from the second well was taken and added to the third well, and a 3-fold dilution was made in sequence, a total of 10 concentrations were diluted. 50 nL of compound was transferred to the reaction plate with echo.
Kinase reaction: Kinase was added to 1×kinase buffer to form a 2×enzyme solution. […] The polypeptide TGFbR1 (purchased from Signal Chem, catalog number T36-58) and ATP were added to 1×kinase buffer to form a 2×substrate solution. The final concentration of the substrate solution was 0.1 mg/mL peptide TGFbR1, 7 μM ATP. 2.5 μL of 2×enzyme solution was added to the 384-well reaction plate (there was already 50 nL of 100% DMSO dissolved compound), and 1×kinase buffer was added to the negative control well. The plate was incubated at room temperature for 10 minutes. 2.5 μL of 2× substrate solution was added to the 384-well reaction plate. The 384-well plate was covered and incubated at 30° C. for 1 hour. ADP-Glo reagent (purchased from Promege, catalog number v9102) was equilibrated to room temperature. 5 μL of ADP-Glo reagent was transferred to the reaction well of the 384-well plate to stop the reaction.
Detection of reaction results: 10 μL of kinase detection reagent was transferred to each reaction well, the plate was shaken for 1 minute and placed at room temperature for 30 minutes. The sample luminescence value was read at Synegy.
Curve fitting: The data of the luminescence reading from the Synegy program were copied. The value of the luminescence reading was converted into the percentage of inhibition by a formula (inhibition percent=(max-sample RLU)/(max-min)*100, wherein “min” was a […] reading of the control sample without enzyme; “max” was the […] reading of sample with DMSO as a control). The data were imported into MS Excel and GraphPad Prism was used for curve fitting. The ICso value was calculated.
A general note: ADP-Glo first removes unused ATP, then detects ADP through luciferase.
As for `Cc1cccc(-n2cccc2-c2ccc3ncc(C(=O)N(C)C)n3c2)n1` [Compound 5], the IC50 (commonly the concentration at which inhibition is half-maximal) turned out to be 0.105 µM.

In the case of `Cc1cccc(-c2cncn2-c2ccc3ncc(C(N)=O)n3c2)n1` [Compound 9], the half-maximal inhibitory concentration (IC50) was 0.136 µM.

Take `Cc1cccc(-c2cccnc2-c2ccc3ncc(C(N)=O)n3c2)n1` [Compound 19]: the midpoint of inhibition, the IC50, lay at 0.075 µM.

`Cc1cccc(-c2cnsc2-c2ccc3nccn3c2)n1` [Compound 16] displayed an IC50 of 0.165 µM.

In turn, `Cc1cccc(-c2cc3ccccc3n2-c2ccc3ncc(C(N)=O)n3c2)n1` [Compound 25] had an IC50 of 0.014 µM.

`Cc1cccc(-c2cc(C)sc2-c2ccc3ncc(C(N)=O)n3c2)n1` [Compound 18] had a 50% inhibitory concentration (IC50) of 0.0094 µM.

As for `Cc1cccc(-c2cccn2-c2ccc3ncc(C(N)=O)n3c2)n1` [Compound 1], the IC50 stood at 0.013 µM.

`Cc1cccc(-c2nccn2-c2ccc3ncc(C(N)=O)n3c2)n1` [Compound 8] returned an IC50 of 0.007 µM. This IC50 lies about 1.9-fold lower than the previous one.

As for `Cc1csc(-c2ncccc2-c2ccc3ncc(C(N)=O)n3c2)n1` [Compound 23], the IC50 came to 0.021 µM.

In the case of `CNC(=O)c1cnc2ccc(-c3ncccc3-c3cccc(C)n3)cn12` [Compound 20], the IC50 amounted to 0.076 µM.

`Cc1cccc(-n2cccc2-c2ccc3ncc(C(N)=O)n3c2)n1` [Compound 4]: the half-inhibitory concentration (IC50) is 0.019 µM. This IC50 lies about 4-fold lower than the previous one.

As for `Cc1cccc(-c2ccsc2-c2ccc3ncc(C(N)=O)n3c2)n1` [Compound 17], the midpoint of inhibition, the IC50, lay at 0.0052 µM.

(Values after patent publication US11584745B2, “Aromatic heterocyclic compound, intermediate thereof, preparation method therefor, and pharmaceutical composition and use thereof” (SHANGHAI YINGLI PHARMACEUTICAL CO., LTD, priority 2018, dated 2023).)
